Measurements reported in US11447489B2, “Dihydropyrimidinylthiazole for the treatment and prophylaxis of hepatitis B virus infection” (priority 2017, dated 2022).
pIC50: −log10 of the molar value.

Test system: HBsAg
Assay: HepG2.2.15 cells primary screen assay: HBsAg assay (CLIA of secreted HBsAg)
Type: cell-based, HBV
Conditions: Hepatitis B virus
Experimental: Example 23: HepG2.2.15 Cells Primary Screen Assay
HepG2.2.15 cells (Acs et al. Proc Natl Acad Sci USA, 84, (1987), 4641-4), a constitutively HBV-expressing cell line were cultured in DMEM+Glutamax-I medium (Invitrogen, Carlsbad, Calif., USA), supplemented with 10% fetal bovine serum (Invitrogen) and G418 (Invitrogen) at a final concentration of 200 mg/L and maintained in 5% CO2 at 37° C.
HepG2.2.15 cells were seeded in duplicate into white, 96-well plates at 1.5×10^4 cells/well. The cells were treated with a three-fold serial dilution series of the compounds in DMSO. The final DMSO concentration in all wells was 1% and DMSO was used as no drug control.
The HBsAg chemiluminescence immunoassay (CLIA) kit (Autobio Diagnostics Co., Zhengzhou, China, Catalog number: CL0310-2) was used to measure the levels of secreted HBV antigens semi-quantitatively. For the detection 50 μL/well culture supernatant was used and HBsAg was quantified using HBsAg chemiluminescence immunoassay (CLIA) kit (Autobio Diagnostics Co., Zhengzhou, China, Catalog number: CL0310-2), 50 μL of the supernatant was transferred to the CLIA assay plate and 50 μL of enzyme conjugate reagent was added into each well. The plates were sealed and gently agitated for 1 hour at room temperature. The supernatant-enzyme-mixture was discarded and wells were washed 6 times with 300 μL of PBS. The residual liquid was removed by plating the CLIA plate […] on absorbent tissue paper. 25 μL of substrates A and B were added to each well. Luminance was measured using a luminometer (Mithras LB 940 Multimode Microplate Reader) after 10 minutes incubation. Dose-response curves were generated and the IC50 value was extrapolated by using the E-WorkBook Suite (ID Business Solutions Ltd., Guildford, UK). The IC50 was defined as the compound concentration (or conditioned media log dilution) at which HBsAg secretion was reduced by 50% compared to the no drug control.
The compounds of the present invention were tested for their capacity to inhibit HBsAg as described herein.

Row | SMILES | pIC50
1 | COC(=O)C1=C(CN2CCN(CCCCCCOc3cc4c(cc3OC)-c3cc(=O)c(C(=O)O)cn3C(C(C)(C)C)C4)C(C(=O)O)C2)NC(c2nccs2)=N[C@H]1c1ccc(F)cc1Cl (stereo partly drawn) [Example 7, 6-tert-butyl-9-[6-[2-carboxy-4-[[(4R)-4-(2-chloro-4-fluoro-phenyl)-5-methoxycarbonyl-2-thiazol-2-yl-1,4-dihydropyrimidin-6-yl]methyl]piperazin-1-yl]hexoxy]-10-methoxy-2-oxo-6,7-dihydrobenzo[a]quinolizine-3-carboxylic Acid] | 6.72
2 | COC(=O)C1=C(CN2CCN3C(=O)N(CC(C)(C)CC(=O)NCCCCCCOc4cc(N5CCc6nc(-c7ncccn7)ncc6C5C)cc(F)c4F)C[C@@H]3C2)NC(c2nccs2)=N[C@H]1c1ccc(F)cc1Cl (stereo partly drawn) [Example 17, methyl (4R)-6-[[(8aS)-2-[4-[6-[2,3-difluoro-5-[5-methyl-2-pyrimidin-2-yl-7,8-dihydro-5H-pyrido[4,3-d]pyrimidin-6-yl]phenoxy]hexylamino]-2,2-dimethyl-4-oxo-butyl]-3-oxo-5,6,8,8a-tetrahydro-1H-imidazo[1,5-a]pyrazin-7-yl]methyl]-4-(2-chloro-4-fluoro-phenyl)-2-thiazol-2-yl-1,4-dihydropyrimidine-5-carboxylate] | 5.93
3 | COC(=O)C1=C(CN2CCOC[C@H]2C(=O)NCCCCCCOc2cc3c(cc2OC)-c2cc(=O)c(C(=O)O)cn2C(C(C)(C)C)C3)NC(c2nccs2)=N[C@H]1c1ccc(F)cc1Cl (stereo partly drawn) [Example 13, 6-tert-butyl-9-[6-[[(3S)-4-[[(4R)-4-(2-chloro-4-fluoro-phenyl)-5-methoxycarbonyl-2-thiazol-2-yl-1,4-dihydropyrimidin-6-yl]methyl]morpholine-3-carbonyl]amino]hexoxy]-10-methoxy-2-oxo-6,7-dihydrobenzo[a]quinolizine-3-carboxylic Acid] | 7.07
4 | COC(=O)C1=C(CN2CCN(c3cc(F)cc(N4CCc5nc(-c6ncccn6)ncc5C4C)n3)C(C(=O)O)C2)NC(c2nccs2)=N[C@H]1c1ccc(F)cc1Cl (stereo partly drawn) [Example 22, 4-[[(4R)-4-(2-chloro-4-fluoro-phenyl)-5-methoxycarbonyl-2-thiazol-2-yl-1,4-dihydropyrimidin-6-yl]methyl]-1-[4-fluoro-6-[5-methyl-2-pyrimidin-2-yl-7,8-dihydro-5H-pyrido[4,3-d]pyrimidin-6-yl]-2-pyridyl]piperazine-2-carboxylic Acid] | 6.21
5 | COC(=O)C1=C(CN2CCN3C(=O)N(CC(C)(C)CC(=O)NCCCCCCOc4cc5c(cc4OC)-c4cc(=O)c(C(=O)O)cn4C(C(C)(C)C)C5)C[C@@H]3C2)NC(c2nccs2)=N[C@H]1c1ccc(F)cc1Cl (stereo partly drawn) [Example 16, 9-[6-[[4-[(8aS)-7-[[(4R)-4-(2-chloro-4-fluoro-phenyl)-5-methoxycarbonyl-2-thiazol-2-yl-1,4-dihydropyrimidin-6-yl]methyl]-3-oxo-5,6,8,8a-tetrahydro-1H-imidazo[1,5-a]pyrazin-2-yl]-3,3-dimethyl-butanoyl]amino]hexoxy]-6-tert-butyl-10-methoxy-2-oxo-6,7-dihydrobenzo[a]quinolizine-3-carboxylic Acid] | 6.97
6 | COC(=O)C1=C(CN2CCOC[C@H]2C(=O)NCCOCCOCCOc2cc3c(cc2OC)-c2cc(=O)c(C(=O)O)cn2C(C(C)(C)C)C3)NC(c2nccs2)=N[C@H]1c1ccc(F)cc1Cl (stereo partly drawn) [Example 10, 6-tert-butyl-9-[2-[2-[2-[[(3S)-4-[[(4R)-4-(2-chloro-4-fluoro-phenyl)-5-methoxycarbonyl-2-thiazol-2-yl-1,4-dihydropyrimidin-6-yl]methyl]morpholine-3-carbonyl]amino]ethoxy]ethoxy]ethoxy]-10-methoxy-2-oxo-6,7-dihydrobenzo[a]quinolizine-3-carboxylic Acid] | 6.24
7 | COC(=O)C1=C(CN2CCN(CCOCCOCCOc3cc4c(cc3OC)-c3cc(=O)c(C(=O)O)cn3C(C(C)(C)C)C4)C(C(=O)O)C2)NC(c2nccs2)=N[C@H]1c1ccc(F)cc1Cl (stereo partly drawn) [Example 11, 6-tert-butyl-9-[2-[2-[2-[2-carboxy-4-[[(4R)-4-(2-chloro-4-fluoro-phenyl)-5-methoxycarbonyl-2-thiazol-2-yl-1,4-dihydropyrimidin-6-yl]methyl]piperazin-1-yl]ethoxy]ethoxy]ethoxy]-10-methoxy-2-oxo-6,7-dihydrobenzo[a]quinolizine-3-carboxylic Acid] | 5.20
8 | COC(=O)C1=C(CN2CCN(CCCOc3cc4c(cc3OC)-c3cc(=O)c(C(=O)O)cn3C(C(C)(C)C)C4)C(C(=O)O)C2)NC(c2nccs2)=N[C@H]1c1ccc(F)cc1Cl (stereo partly drawn) [Example 5, 6-tert-butyl-9-[3-[2-carboxy-4-[[(4R)-4-(2-chloro-4-fluoro-phenyl)-5-methoxycarbonyl-2-thiazol-2-yl-1,4-dihydropyrimidin-6-yl]methyl]piperazin-1-yl]propoxy]-10-methoxy-2-oxo-6,7-dihydrobenzo[a]quinolizine-3-carboxylic Acid] | 5.46
9 | COC(=O)C1=C(CN2CCN(CC[C@@H](NCCCCCCOc3cc(N4CCc5nc(-c6ncccn6)ncc5C4C)cc(F)c3F)C(=O)O)CC2)NC(c2nccs2)=N[C@H]1c1ccc(F)cc1Cl (stereo partly drawn) [Example 21, (2R)-4-[4-[[(4R)-4-(2-chloro-4-fluoro-phenyl)-5-methoxycarbonyl-2-thiazol-2-yl-1,4-dihydropyrimidin-6-yl]methyl]piperazin-1-yl]-2-[6-[2,3-difluoro-5-(5-methyl-2-pyrimidin-2-yl-7,8-dihydro-5H-pyrido[4,3-d]pyrimidin-6-yl)phenoxy]hexylamino]butanoic Acid] | 6.24
10 | COC(=O)C1=C(CN2CCOC[C@H]2CN(C)CCCCCCOc2cc(N3CCc4nc(-c5ncccn5)ncc4C3C)cc(F)c2F)NC(c2nccs2)=N[C@H]1c1ccc(F)cc1Cl (stereo partly drawn) [Example 19, methyl (4R)-4-(2-chloro-4-fluoro-phenyl)-6-[[(3R)-3-[[6-[2,3-difluoro-5-(5-methyl-2-pyrimidin-2-yl-7,8-dihydro-5H-pyrido[4,3-d]pyrimidin-6-yl)phenoxy]hexyl-methyl-amino]methyl]morpholin-4-yl]methyl]-2-thiazol-2-yl-1,4-dihydropyrimidine-5-carboxylate] | 6.14
11 | COC(=O)C1=C(CN2CCN(CCCCCOc3cc4c(cc3OC)-c3cc(=O)c(C(=O)O)cn3C(C(C)(C)C)C4)CC2)NC(c2nccs2)=N[C@H]1c1ccc(F)cc1Cl (stereo partly drawn) [Example 2, 6-tert-butyl-9-[5-[4-[[(4R)-4-(2-chloro-4-fluoro-phenyl)-5-methoxycarbonyl-2-thiazol-2-yl-1,4-dihydropyrimidin-6-yl]methyl]piperazin-1-yl]pentoxy]-10-methoxy-2-oxo-6,7-dihydrobenzo[a]quinolizine-3-carboxylic Acid] | 7.06
12 | COC(=O)C1=C(CN2CCOC[C@H]2C(=O)NCCCCCCOc2cc(N3CCc4nc(-c5ncccn5)ncc4C3C)cc(F)c2F)NC(c2nccs2)=N[C@H]1c1ccc(F)cc1Cl (stereo partly drawn) [Example 18, methyl (4R)-4-(2-chloro-4-fluoro-phenyl)-6-[[(3S)-3-[6-[2,3-difluoro-5-(5-methyl-2-pyrimidin-2-yl-7,8-dihydro-5H-pyrido[4,3-d]pyrimidin-6-yl)phenoxy]hexylcarbamoyl]morpholin-4-yl]methyl]-2-thiazol-2-yl-1,4-dihydropyrimidine-5-carboxylate] | 6.04
13 | COC(=O)C1=C(CN2CCN(CCC(CCCOc3cc4c(cc3OC)-c3cc(=O)c(C(=O)O)cn3C(C(C)(C)C)C4)C(=O)O)CC2)NC(c2nccs2)=N[C@H]1c1ccc(F)cc1Cl (stereo partly drawn) [Example 12, 6-tert-butyl-9-[4-carboxy-6-[4-[[(4R)-4-(2-chloro-4-fluoro-phenyl)-5-methoxycarbonyl-2-thiazol-2-yl-1,4-dihydropyrimidin-6-yl]methyl]piperazin-1-yl]hexoxy]-10-methoxy-2-oxo-6,7-dihydrobenzo[a]quinolizine-3-carboxylic Acid] | 6.13
14 | COC(=O)C1=C(CN2CCN(CCCCCCOc3cc4c(cc3OC)-c3cc(=O)c(C(=O)O)cn3C(C(C)(C)C)C4)CC2)NC(c2nccs2)=N[C@H]1c1ccc(F)cc1Cl (stereo partly drawn) [Example 1, 6-tert-butyl-9-[6-[4-[[(4R)-4-(2-chloro-4-fluoro-phenyl)-5-methoxycarbonyl-2-thiazol-2-yl-1,4-dihydropyrimidin-6-yl]methyl]piperazin-1-yl]hexoxy]-10-methoxy-2-oxo-6,7-dihydrobenzo[a]quinolizine-3-carboxylic Acid] | 7.39
15 | CCOC(=O)C1=C(COCCCCCCOc2cc3c(cc2OC)-c2cc(=O)c(C(=O)O)cn2C(C(C)(C)C)C3)NC(c2nccs2)=NC1c1ccc(F)cc1Cl (stereo not drawn) [Example 14, 6-tert-butyl-9-[6-[[4-(2-chloro-4-fluoro-phenyl)-5-ethoxycarbonyl-2-thiazol-2-yl-1,4-dihydropyrimidin-6-yl]methoxy]hexoxy]-10-methoxy-2-oxo-6,7-dihydrobenzo[a]quinolizine-3-carboxylic Acid] | 7.02
